Reference: PMC8035703, “Effect of Synchronous Versus Sequential Regimens on the Pharmacokinetics and Biodistribution of Regorafenib with Irradiation” (Pharmaceutics, 2021)
Several values for one entry are separate records, joined by “and”; a condition that tells them apart may be missing. Equal entries are not always repeated. Where two headings read alike, the source gives them in different places. Marks after values point to notes of the source that are not given here.

What was measured:
[1] = Pharmacokinetics of regorafenib in plasma of freely moving rats with or without RT (HPLC-UV); type: in vivo, Sprague-Dawley rats; conditions: for MRT / Tmax / half-life: plasma, po, 16 mg/kg; for half-life: read-out: t½
Method: The Institutional Animal Experimentation Committee of National Yang-Ming University, Taipei, Taiwan, and the Institutional Animal Care and Use Committee (IACUC, approval number 1070523) reviewed and approved the protocol. The Laboratory Animal Center at National Yang-Ming University (Taipei, Taiwan) provided adult male Sprague-Dawley rats (300 ± 20 g body weight). A pathogen-free environment with a 12 h light–dark cycle, with access to water ad libitum and food (laboratory rodent diet 5P14, PMI Feeds, Richmond, IN, USA), was provided for the animals.
A freely moving rat model was designed for the current study. The rats were anaesthetized and immobilized on a board, while undergoing computed tomography for localization of the whole liver or a central area 1.5 cm × 1.5 cm in size for the SBRT technique. For the whole liver field, the cranial margin was set 5 mm from the top of the diaphragm, and the caudal margin was set 5 mm lower than the liver margin. The whole liver was targeted for irradiation. The experimental animals were randomized to groups receiving sham RT, one or three fractions of RT2 Gy and RT9 Gy with current or sequential regorafenib. Data were collected from six rats in each group.
According to the formula used to translate doses from animal to human, human equivalent dose (HED, mg/kg) = animal dose (mg/kg) × animal km/human km, we calculated the daily dose of regorafenib for rats to be 16 (mg/kg/day). The rats were randomly divided into ten groups with six rats in each group. The concurrent groups treated with regorafenib 1 h after RT, in the same day, to mimic regorafenib concurrent with RT in the daily practice. The sequential groups treated with regorafenib following RT (not in the same day), to mimic RT followed by regorafenib in the daily practice. The one fraction study group included (A) a sham group, regorafenib with RT0 Gy (regorafenib × 1 d); concurrent groups treated with regorafenib 1 h after (B) RT2 Gy with 1 fraction (RT2 Gy × 1 f’x) and (D) RT9 Gy with 1 fraction (RT9 Gy × 1 f’x); and sequential groups treated with regorafenib 24 h after (C) RT2 Gy × 1 f’x and (E) RT9 Gy × 1 f’x. Continued treatment mimicking clinical practice was applied to (A) a sham group, regorafenib (p.o. (per os), q.d. × 3 d) with RT0 Gy (regorafenib × 3 d); concurrent groups treated with regorafenib (p.o., q.d. × 3 d) 1 h after (B) RT2 Gy with 3 fractions (RT2 Gy × 3 f’x) and (D) RT9 Gy with 3 fractions (RT9Gy × 3 f’x); and sequential groups treated with regorafenib 24 h (p.o., q.d. × 3 d) after (C) RT2 Gy × 3 f’x and (E) RT9 Gy × 3 f’x. (Figure 1A,B).
A 150 µL blood sample was withdrawn from the jugular vein with a fraction collector at 0.25, 0.5, 0.75, 1, 1.5, 2, 2.5, 3, 3.5 and 4 h, following drug administration. The samples were centrifuged for 10 min, at 4200× g. Then, 50 µL of the resulting plasma was vortexed with 1 mL of ethyl acetate and centrifuged at 5900× g. The upper layer was transferred to a new tube and evaporated to dryness.
The HPLC system included chromatographic pumps (LC-20AT; Shimadzu Co., Kyoto, Japan), an autosampler (SIL-20AC; Shimadzu Co., Kyoto, Japan) and a UV–Vis detector (SPDM20A; Shimadzu Co., Kyoto, Japan). A Waters Acquity C^18 column (50 × 2.1 mm, particle size 1.7 μm, Eclipse XDB, Agilent, Palo Alto, CA, USA) was used for sample analysis. The mobile phase consisted of potassium dihydrogen phosphate (10 mM, pH = 3) and acetonitrile (55:45, v/v). The flow rate was set to 0.2 mL/min, and the injection volume was 5 μL. The temperature in the autosampler was set to 40 °C. The UV–Vis detector scanned from 190 to 300 nm, and the chromatographic profiles were monitored at 265 nm for regorafenib and diethylstilbestrol (internal standard (IS)).
The process for sample extraction was as follows: 50 μL of rat plasma was mixed with internal standard (10 μL, IS, diethylstilbestrol) solution and methanol (140 μL) for protein precipitation. […]

Huh-7 cells = assay: Morphological observation (Liu's stain); type: cell-based, human; conditions: regorafenib 0-20 μM with RT
Method: Huh-7 cells were treated with regorafenib at concentrations of 0, 5, 10 and 20 μmol/L (μM) in the concurrent and sequential groups with different RT doses. Then, the cells were centrifuged by using Cytospin (Shandon Inc., Pittsburgh, PA). Liu’s A solution and Liu’s B solution were used on glass slides for 45 and 90 s, respectively. Then, a light microscope (Olympus, Tokyo, Japan) was used to observe the Huh-7 cells.

HCC patients = system: HCC patients; set-up: method as in PMID 29704513; conditions: patients treated with sorafenib followed by regorafenib; cited from earlier work
[2] = male, Sprague-Dawley, rat, rat plasma, 16 mg/kg p.o. × 1 d, no RT
[3] = male, Sprague-Dawley, rat, rat plasma, 16 mg/kg p.o. × 3 d, no RT
[4] = male, Sprague-Dawley, rat, rat plasma, RT2 Gy × 1 f'x followed by regorafenib 16 mg/kg p.o. × 1 d (sequential)
[5] = male, Sprague-Dawley, rat, rat plasma, RT2 Gy × 1 f'x with regorafenib 16 mg/kg p.o. × 1 d (concurrent)
[6] = male, Sprague-Dawley, rat, rat plasma, RT2 Gy × 3 f'x followed by regorafenib 16 mg/kg p.o. × 3 d (sequential)
[7] = male, Sprague-Dawley, rat, rat plasma, RT2 Gy × 3 f'x with regorafenib 16 mg/kg p.o. × 3 d (concurrent)
[8] = male, Sprague-Dawley, rat, rat plasma, RT9 Gy × 1 f'x followed by regorafenib 16 mg/kg p.o. × 1 d (sequential)
[9] = male, Sprague-Dawley, rat, rat plasma, RT9 Gy × 1 f'x with regorafenib 16 mg/kg p.o. × 1 d (concurrent)
[10] = male, Sprague-Dawley, rat, rat plasma, RT9 Gy × 3 f'x followed by regorafenib 16 mg/kg p.o. × 3 d (sequential)
[11] = male, Sprague-Dawley, rat, rat plasma, RT9 Gy × 3 f'x with regorafenib 16 mg/kg p.o. × 3 d (concurrent)
[12] = rat plasma, 16 mg/kg p.o. × 1 d, no RT
[13] = rat plasma, 16 mg/kg p.o. × 3 d, no RT
[14] = rat plasma, RT2 Gy × 1 f'x followed by regorafenib 16 mg/kg p.o. × 1 d (sequential)
[15] = rat plasma, RT2 Gy × 1 f'x with regorafenib 16 mg/kg p.o. × 1 d (concurrent)
[16] = rat plasma, RT2 Gy × 3 f'x followed by regorafenib 16 mg/kg p.o. × 3 d (sequential)
[17] = rat plasma, RT2 Gy × 3 f'x with regorafenib 16 mg/kg p.o. × 3 d (concurrent)
[18] = rat plasma, RT9 Gy × 1 f'x followed by regorafenib 16 mg/kg p.o. × 1 d (sequential)
[19] = rat plasma, RT9 Gy × 1 f'x with regorafenib 16 mg/kg p.o. × 1 d (concurrent)
[20] = rat plasma, RT9 Gy × 3 f'x followed by regorafenib 16 mg/kg p.o. × 3 d (sequential)
[21] = rat plasma, RT9 Gy × 3 f'x with regorafenib 16 mg/kg p.o. × 3 d (concurrent)

## CNC(=O)c1cc(Oc2ccc(NC(=O)Nc3ccc(Cl)c(C(F)(F)F)c3)c(F)c2)ccn1 [regorafenib, Regorafenib]
[1]; concurrent RT2 Gy × 1 f'x vs sham RT (regorafenib × 1 d), rat
  Decrease of plasma AUCregorafenib: 33.0%
[1]; concurrent RT2 Gy × 3 f'x vs regorafenib × 3 d, rat
  Decrease of plasma AUCregorafenib: 74%
[1]; concurrent RT9 Gy × 3 f'x vs regorafenib × 3 d, rat
  Decrease of plasma AUCregorafenib: 69% and 69.4%
[1]; male, Sprague-Dawley, oral, rat plasma collected 180 min after regorafenib 16 mg/kg p.o. alone
  concentration at 180 min: 1500 ng/mL
[1]; [2]
  MRT: 24.7 h
  Tmax: 3.17 h
  half-life: 15.7 ± 8.92 h
[1]; [3]
  MRT: 13.7 h
  Tmax: 1.5 h
  half-life: 9.17 ± 2.43 h
[1]; [4]
  MRT: 9.22 h
  Tmax: 3 h
  half-life: 5.77 ± 1.55 h
[1]; [5]
  MRT: 10.8 h
  Tmax: 2.75 h
  half-life: 6.82 ± 2.5 h
[1]; [6]
  MRT: 22.8 h
  Tmax: 1.67 h
  half-life: 15.3 ± 15.9 h
[1]; [7]
  MRT: 9.73 h
  Tmax: 2.08 h
  half-life: 6.2 ± 2.53 h
[1]; [8]
  MRT: 15.6 h
  Tmax: 2.58 h
  half-life: 10.1 ± 3.5 h
[1]; [9]
  MRT: 16.3 h
  Tmax: 2.58 h
  half-life: 10.9 ± 7.42 h
[1]; [10]
  MRT: 14.3 h
  Tmax: 1.83 h
  half-life: 9.52 ± 5.38 h
[1]; [11]
  MRT: 16.4 h
  Tmax: 1.63 h
  half-life: 11 ± 9.97 h
[1]; off-target or SBRT dose, × 1 f'x, concurrent, rat
  Decrease of regorafenib levels (AUC) by a single fraction of RT, concurrent regimen: ~35%
[1]; rat plasma
  AUCregorafenib, sequential RT2 Gy × 3 f'x relative to concurrent RT2 Gy × 3 f'x: 2.0 fold
[1]; [12]
  Cl: 8.18 ± 3.06 mL/min/kg
  Vss: 12641.9 ± 6928.9 mL/kg
[1]; [13]
  Cl: 4.21 ± 1.82 mL/min/kg
  Vss: 3604.5 ± 951.1 mL/kg
[1]; [14]
  Cl: 6.19 ± 0.35 mL/min/kg
  Vss: 3081.4 ± 773.1 mL/kg
[1]; [15]
  Cl: 16.6 ± 7.21 mL/min/kg
  Vss: 21606.9 ± 20731.8 mL/kg
[1]; [16]
  Cl: 8.56 ± 7.21 mL/min/kg
  Vss: 4156.0 ± 1959.9 mL/kg
[1]; [17]
  Cl: 23.20 ± 9.45 ^n mL/min/kg
  Vss: 12759.6 ± 8467.4 ^p mL/kg
[1]; [18]
  Cl: 3.3 ± 4.3 mL/min/kg
  Vss: 2898.8 ± 4123.7 mL/kg
[1]; [19]
  Cl: 34.6 ± 25.3 mL/min/kg
  Vss: 30999.0 ± 34618.0 mL/kg
[1]; [20]
  Cl: 11.4 ± 4.5 mL/min/kg
  Vss: 7960.3 ± 3023.5 ^r mL/kg
[1]; [21]
  Cl: 19.0 ± 11.7 ^o mL/min/kg
  Vss: 11564.4 ± 3361.0 ^q mL/kg
[1]; sequential RT2 Gy × 1 f'x vs regorafenib × 1 d, rat
  Increase of plasma AUCregorafenib: 182.8%
[1]; sequential RT2 Gy × 3 f'x vs regorafenib × 3 d, rat
  Decrease of plasma AUCregorafenib: 20.7%
[1]; sequential RT9 Gy × 1 f'x vs regorafenib × 1 d, rat
  Increase of plasma AUCregorafenib: 213.2%
[1]; sequential RT9 Gy × 3 f'x vs regorafenib × 3 d, rat
  Decrease of plasma AUCregorafenib: 45.8%
Huh-7 cells
  Morphological changes (in words): Cell shrinkage and pyknosis occurred in a dose-dependent manner
HCC patients
  Median overall survival: 26 months
